Test results: the supplement of paper PMC3974653
Where a name gives a salt, the structure may show the parent alone.

These compounds were tested on MTT (mouse pheochromocytoma) (assay: IC50 of cell viability (ATP content)). Conditions: (24 or 48 h).
Outline: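 Library compounds were tested at 8 final concentrations (0.5 nM to 46 µM) on MTT mouse pheochromocytoma cells for 24 or 48 hrs, with readout by CellTiter-Glo ATP luminescence. Signals were normalised with positive-control wells at 100% and DMSO wells at 0%. IC50 values were obtained by a four-parameter logistic fit.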

SMILES | IC50 of cell viability [µM]
CC(=O)NC1[C@H]([C@H](O)[C@H](O)CO)OC(C(=O)O)=C[C@H]1NC(=N)N (stereo partly specified) [Zanamivir] | > 46
CCOC(=O)/C=C(C)/C=C/C=C(C)/C=C/c1c(C)cc(OC)c(C)c1C [ETRETINATE] | > 46
Cn1cnc2c(F)c(Nc3ccc(Br)cc3Cl)c(C(=O)NOCCO)cc21 [Selumetinib] | > 46
CC[C@H](CO)NCCN[C@@H](CC)CO [Ethambutol dihydrochloride] | > 46
O=C1CC2(CCCC2)CC(=O)N1CCCCN1CCN(c2ncccn2)CC1 [BUSPIRONE] | > 46
COC(=O)c1cncn1C(C)c1ccccc1 (stereo unspecified) [METOMIDATE HYDROCHLORIDE] | > 46
NC(=O)N/N=C/c1ccc([N+](=O)[O-])o1 [5-Nitro-2-furaldehyde semicarbazone] | > 46
CCCCC[C@H](O)/C=C/[C@@H]1[C@H]2C/C(=C/CCCC(=O)[O-])O[C@H]2C[C@H]1O [EPOPROSTENOL SODIUM] | > 46
CC(=O)O[C@@H](C)C[N+](C)(C)C [Methacholine chloride] | > 46
CCOC(=O)CC(SP(=S)(OC)OC)C(=O)OCC (stereo unspecified) [MALATHION] | > 46
CC(C)(C)NC[C@H](O)c1cc(O)cc(O)c1 [Terbutaline hemisulfate] | > 46
CCC(O)c1ccccc1 (stereo unspecified) [PHENYLPROPANOL] | > 46
NNC(=O)CP(=O)(c1ccccc1)c1ccccc1 [Fosenazida] | > 46
CC(C)(C)NC[C@H](O)CSc1nc(-c2ccc(C(N)=O)s2)cs1 [AROTINOLOL HYDROCHLORIDE] | > 46
NCCCCC(NC(=O)C1CCCN1C(=O)C1CSSCC(N)C(=O)NC(Cc2ccc(O)cc2)C(=O)NC(Cc2ccccc2)C(=O)NC(CCC(N)=O)C(=O)NC(CC(N)=O)C(=O)N1)C(=O)NCC(N)=O (stereo unspecified) [[Lys8]-Vasopressin] | > 46
Cc1ccc(-c2cc(C(F)(F)F)nn2-c2ccc([S+](N)(=O)[O-])cc2)cc1 [Celecoxib] | > 46
C\C1=C(\[N@]2[C@@H](SC1)[C@H](NC(=O)[C@@H](N)C3=CC=C(O)C=C3)C2=O)C(O)=O [Cefadroxil] | > 46
CC(=O)Nc1ccc([S+](=O)([O-])Nc2ccc([N+](=O)[O-])cc2)cc1 [SULFANITRAN] | > 46
COC1=C(OC(F)F)C=CC(=C1)C/2=N/NC(=O)/C=C2 [Zardaverine] | > 46

SMILES | IC50 of cell viability [µM]
[O-][n+]1cc[n+]([O-])c2ccccc21 [Quindoxin] | > 46
Cc1ccc(C(=O)c2cc(O)c(O)c([N+](=O)[O-])c2)cc1 [TOLCAPONE] | > 46
[Na+].[Na+].CO[C@@]1(NC(=O)[C@H](C([O-])=O)C2=CC=C(O)C=C2)[C@@H]3OC\C(=C(/N3C1=O)C([O-])=O)CSC4=NN=N[N]4C [Moxalactam disodium salt] | > 46
C=CCNC(N)=S [Allylthiourea] | > 46
CNC(=O)[C@H](Cc1c[nH]c2ccccc12)NC(=O)[C@@H](CC(=O)NO)CC(C)C [ILOMASTATUM] | > 46
CCOc1ccc(NC(C)=O)cc1 [Phenacetin] | > 46
CCCC(=O)OC(C(Cl)(Cl)Cl)P(=O)(OC)OC (stereo unspecified) [Butonate] | > 46
CCCCCCCCCCCCCCCC[N+](C)(C)CCN(Cc1ccc(OC)cc1)c1ncccn1 [Thonzonium bromide] | > 46
Nc1ncnc2c1ncn2CCOCP(=O)(O)O [Adefovir] | > 46
[Na+].CC1(C)S[C@H]2[C@H](NC(=O)[C@@H](NC(=O)N3CCNC3=O)C4=CC=CC=C4)C(=O)[N@]2[C@H]1C([O-])=O [Azlocillin sodium salt] | > 46
COc1cc(C(=O)NS(=O)(=O)c2ccccc2C)ccc1Cc1cn(C)c2ccc(NC(=O)OC3CCCC3)cc12 [Zafirlukast] | > 46
O=C(O)c1ccc(-n2nc(-c3ccccc3O)nc2-c2ccccc2O)cc1 [DEFERASIROX] | > 46
O=C1CN=C(c2ccccc2)c2cc([N+](=O)[O-])ccc2N1 [nitrazepam] | > 46
CCCCNC(=O)N[S+](=O)([O-])c1ccc(N)cc1 [Carbutamide] | > 46
[NH2][Pt]1([NH2])[O]CC(=O)[O]1 [NEDAPLATIN] | > 46
CC(=O)SC[C@@H](Cc1ccccc1)C(=O)NCC(=O)OCc1ccccc1 [Racecadotril] | > 46
CC(CN(C)C)C(C)(O)Cc1ccc(Cl)cc1 (stereo unspecified) [CLOBUTINOL HYDROCHLORIDE] | > 46
NC(=O)CCCCC1CCSS1 (stereo unspecified) [THIOCTIC ACID AMIDE] | > 46
CCC[C@@H]1C(=O)N2N(C1=O)\C(=N/C3=C2C=C(C)C=C3)N(C)C [Azapropazone] | > 46

SMILES | IC50 of cell viability [µM]
O=[S+]([O-])(c1ccc(Cl)cc1)c1ccc(Cl)cc1 [4,4'-Dichlorodiphenyl sulfone] | > 46
CNC(=N)NCCC[C@H](N)C(=O)O [NG-Monomethyl-L-arginine acetate] | > 46
CC1=NC=C2C\N=C(\C3=CC=CC=C3F)C4=CC(=CC=C4[N]12)Cl [MIDAZOLAM HYDROCHLORIDE] | > 46
CCN1\C=C(\C(O)=O)C(=O)C2=C1N=C(N=C2)N3CCCC3 [Piromidic acid] | > 46
CC(C)OC(=O)c1cc2c(OCC(O)CNC(C)(C)C)cccc2[nH]1 (stereo unspecified) | > 46
C[N+]1(CC2COC(c3ccccc3)(c3ccccc3)O2)CCCCC1 (stereo unspecified) [DIPHENYLPIPERIDINOMETHYLDIOXOLAN IODIDE (Anacolin)] | > 46
Cc1cc(N[S+](=O)([O-])c2ccc(N)cc2)no1 [Sulfamethoxazole] | > 46
C=CCOC(Cn1ccnc1)c1ccc(Cl)cc1Cl (stereo unspecified) [Imazalil sulphate] | > 46
N[C@@H](Cc1ccc(N(CCCl)CCCl)cc1)C(=O)O [Melphalan] | > 46
C[C@H]1[C@@H]2CC[C@]/3(C)\C=C/C(=O)/C(=C3[C@H]2OC1=O)C [alpha-Santonin] | > 46
Clc1ccccc1-c1nc(-c2ccncc2)no1 [PIFEXOLUM] | > 46
CNc1cc(OC)c(C(=O)NC2CCN(Cc3ccccc3)C2C)cc1Cl (stereo unspecified) [Nemonapride] | > 46
Nc1nc(O)c(Br)c(-c2ccccc2)n1 [BROPIRIMINE] | > 46
COc1ccccc1OCC1CNC(=O)O1 (stereo unspecified) [Mephenoxalone] | > 46
CC(CCc1ccc(O)cc1)NCCc1ccc(O)c(O)c1 (stereo unspecified) [DOBUTAMINE] | > 46
CCOP(=S)(OCC)O/N=C(\C#N)c1ccccc1 [Phoxim] | > 46
F/C(COc1ccc2c(c1)[nH]c1ccccc12)=C1/CN2CCC1CC2 | > 46
CC1(C)SC2C(NC(=O)C(N)c3ccccc3)C(=O)N2C1C(=O)O (stereo unspecified) [Ampicillin A] | > 46
